Test results reported in PubChem BioAssay (NCI).
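Five concentrations, 48 hours, 96-well plates. GI50 = concentration required for 50% inhibition of growth. Definition used: TGI = concentration required for complete inhibition of growth.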

What was measured:
Assay in all cases: DTP human tumour cell line panel, 48 h
MDA-N = tested on: MDA-N
HOP-18 NSCLC = tested on: HOP-18 NSCLC
KM20L2 colon = tested on: KM20L2 colon
RXF-631 renal = tested on: RXF-631 renal
DMS 114 small cell lung = tested on: DMS 114 small cell lung
SNB-78 CNS = tested on: SNB-78 CNS
XF 498 CNS = tested on: XF 498 CNS

Compound | TGI (MDA-N) [µM] | TGI (HOP-18 NSCLC) [µM] | TGI (KM20L2 colon) [µM] | TGI (RXF-631 renal) [µM] | TGI (DMS 114 small cell lung) [µM] | TGI (SNB-78 CNS) [µM] | TGI (XF 498 CNS) [µM] | GI50 (MDA-N) [µM]
COc1cc(OC)c(/C=C\c2ccnc3ccccc23)c(OC)c1 | 2.03 | – | – | – | – | – | – | –
CC(=O)c1ccc(OCC(O)CO)cc1 (stereo not drawn) | – | > 100 | > 100 | > 100 | > 100 | > 100 | – | –
CC(=O)Nc1cc(N(CCOS(C)(=O)=O)CCOS(C)(=O)=O)ccc1N=O | – | – | > 100 | – | > 100 | – | > 100 | –
COC(=O)C(CC(C)C)NC(=O)NC12CC3CC(CC(F)(C3)C1)C2 (stereo not drawn) | – | – | > 100 | > 100 | > 100 | > 100 | – | –
O=CNc1ncn[nH]1 | > 100 | – | – | – | – | – | – | –
CCOC(=O)CSC(=O)NCCCl | – | – | > 100 | – | > 100 | > 100 | – | –
CC1=CC(=C(c2ccc(N)cc2)c2ccc(N)cc2)C=CC1=N | > 40.9 | – | 17.6 | – | 12.9 | 9.89 | 10.3 | –
COC(=O)C(=O)C(C(=O)C(=O)Nc1nc2ccc(C)cc2s1)c1nc2ccc([N+](=O)[O-])cc2[nH]c1=O (stereo not drawn) | > 100 | – | – | – | – | – | – | –
COC(=O)/C=C(\C(=O)OC)c1c2c3c(cc(OC)c(OC)c3c3ccccc13)CCN2C | – | > 100 | > 100 | > 100 | 80.7 | > 100 | – | –
COC(=O)/C(=N\Nc1nc(=S)[nH]n1N)C(C#N)c1ccccc1 (stereo not drawn) | – | > 100 | > 100 | – | – | > 100 | – | –
CCCCCCCCCCCCCC(=O)OCC1OC(n2cc(F)c(=O)[nH]c2=O)C(NC(=O)OCc2ccccc2)C(OC(=O)CCCCCCCCCCCCC)C1O (stereo not drawn) | – | > 100 | > 100 | > 100 | > 100 | > 100 | > 100 | –
C=CC(C1=CC(=O)C(OC)=CC1=O)c1ccccc1 (stereo not drawn) | 31.6 | – | – | – | – | – | – | –
CC(/C(=N\Nc1ccccc1)c1ccc(O)cc1)C1C(=O)Oc2ccccc21 (stereo not drawn) | – | – | > 100 | – | > 100 | – | – | –
COC(=O)C(C(=O)C(=O)Nc1nc(=S)[nH][nH]1)c1csc(-n2nc(-c3ccccc3)cc2-c2ccccc2)n1 (stereo not drawn) | – | – | > 100 | – | – | > 100 | – | –
CCOC(=O)C1C2CCC(C2)C1(CCl)C(=O)OCC (stereo not drawn) | – | > 100 | > 100 | > 100 | > 100 | – | – | –
O=C1c2ccccc2C(=O)N1CCN(CCN1C(=O)c2ccccc2C1=O)Cn1cccn1 | – | – | > 100 | > 100 | 38.3 | > 100 | > 100 | –
N#Cc1ccccc1NC(=O)C(=O)c1c(O)c2ccccc2oc1=O | > 100 | – | – | – | – | – | – | –
CC(=O)OC1CCCn2c1nc1c2C(=O)C(C)=C(N2CC2)C1=O (stereo not drawn) | – | 1.11 | 1.2 | – | 2.38 | 2.88 | 0.685 | –
CNCc1cc(OC)ccc1-c1ccc(OC)c(OC)c1OC | – | > 100 | > 100 | > 100 | > 100 | > 100 | > 100 | –

Compound | TGI (MDA-N) [µM] | TGI (HOP-18 NSCLC) [µM] | TGI (KM20L2 colon) [µM] | TGI (RXF-631 renal) [µM] | TGI (DMS 114 small cell lung) [µM] | TGI (SNB-78 CNS) [µM] | TGI (XF 498 CNS) [µM] | GI50 (MDA-N) [µM]
CC1SC2=NC3=C(c4ccccc4C3=O)C(c3ccc(Cl)cc3)N2C1=O (stereo not drawn) | – | – | > 100 | > 100 | > 100 | – | > 100 | –
CN(C)CCNC(=O)C(C)(C)Oc1ccc(C(=O)c2ccc(Cl)cc2)cc1Cl | 19.8 | – | – | – | – | – | – | 6.48
CC1=NOC(=O)/C1=C/c1cccc2ccccc12 | – | > 100 | > 100 | – | > 100 | > 100 | – | –
O=C1CCC2CC(C(=O)c3ccccc3)CCC2CN1 (stereo not drawn) (tested in a mixture with another compound) | – | > 100 | > 100 | – | > 100 | > 100 | – | –
NNC(=O)CNC(=O)c1ccc(Cl)cc1Cl | – | > 100 | > 100 | – | > 100 | – | > 100 | –
CC1C[C@H](C)CC(C(O)CC2CC(=O)N(Cc3ccccc3)C(=O)C2)C1O (stereo partly drawn) | – | > 100 | > 100 | – | > 100 | > 100 | – | –
O=C(c1ccccc1)[C@H]1Nc2ccc(Cl)cc2C2c3ccccc3CC21 (stereo partly drawn) | – | – | > 100 | > 100 | > 100 | > 100 | 72.5 | –
CC1(C)C(O)C[C@@H](O)[C@@]2(C)C1CC[C@]1(C)C2C[C@@H](O)[C@@H]2C([C@@]3(C)CC[C@@H](C(C)(C)O)O3)CCC21C (stereo partly drawn) | – | 31.1 | 31.2 | – | 29.1 | 43.8 | 33.7 | –
COc1ccc(C2CC(c3cc(C)ccc3O)=NC(N)=N2)cc1 (stereo not drawn) | – | > 100 | > 100 | – | > 100 | > 100 | > 100 | –
NC(=O)c1ccc(NN=O)nc1 | > 100 | – | – | – | – | – | – | –
CNC(=O)OCc1c2ccncc2c(C)c2c1[nH]c1ccccc12 | 1.73 | – | – | – | – | – | – | –
Cc1cc2c(cc1C)[n+](=O)c(C(=O)C/C(=N/OCCCc1ccccc1)C(=O)Nc1cc(Cl)ccc1Cl)c(C)n2[O-] | – | > 100 | > 100 | > 100 | – | > 100 | > 100 | –
Cc1ccc(S(=O)(=O)N2CCSCCN(S(=O)(=O)c3ccc(C)cc3)CCN(S(=O)(=O)c3ccc(C)cc3)CC2)cc1 | > 100 | – | – | – | – | – | – | –
N#Cc1c2c(c(N=P(c3ccccc3)(c3ccccc3)c3ccccc3)n3c1nc1ccccc13)CCCC2 | – | > 100 | > 100 | > 100 | 59.4 | 97.3 | – | –
N/N=C(\C(=O)Nc1ccc(Cl)cc1Cl)C(c1cnc2ccccc2n1)[N+](=O)[O-] (stereo not drawn) | > 100 | – | – | – | – | – | – | –
CC1CC(=O)Nc2ccccc2N1C(=O)CN1CCC(CCCCN(C)C)CC1 (stereo not drawn) | – | > 100 | > 100 | > 100 | > 100 | > 100 | – | –
CC[P+](C)(C)c1ccccc1 | – | 49.8 | > 100 | – | > 100 | > 100 | > 100 | –
CCCCCCCCOCC(O)COC(=O)CCCCCCC (stereo not drawn) | – | > 100 | > 100 | > 100 | > 100 | – | – | –
